Assay results from US11549115B2, “Compositions and methods for regulated gene expression” (YALE UNIVERSITY, priority 2017, dated 2023).

Key:
[1] = system: Bt::tetR P1TDP^GH023-NanoLuc; assay type: in vivo, mice
Description: 8-10 week old SPF Rag^−/− mice (Jackson Laboratories) (n=7) were colonized by oral gavage with 1×10^9 CFU of B. thetaiotaomicron TetR-P1TDP^GH023-NanoLuc. Fecal pellets were collected daily after gavage and processed as described above. The supernatant was used for CFU determination by plating dilutions on BHI-blood agar plates containing gentamicin and erythromycin, and 500 μL was used for luminescence measurements (described below).
(§1) The 500 μL collected from the resuspended fecal supernatant was centrifuged at 21,130×g for 3 minutes to pellet bacterial cells, which were then resuspended in 50 μL 1× BugBuster (Novagen) in 1×PBS and lysed by one round of freeze-thaw and 10 minutes of nutation at 26° C. Samples were centrifuged at 21,130×g for 10 minutes at 4° C., and 10 μL of the supernatant was mixed with an equal volume of NanoLuc Reaction Buffer to induce luminescence production. Luminescence was measured after a 5 minute incubation at 26° C. on a plate reader (BioTek Synergy H1) with an integration time of 1 second at a gain setting of 100. Luminescence values were normalized to colony forming units (CFUs) determined by dilution plating of the resuspended fecal supernatant on BHI-blood agar plates containing gentamicin and erythromycin.

[2] = system: Bt::tetR P1TDP^GH023-NanoLuc; assay type: in vivo, mice; remark: listed apart in the source
Description: Germ-free Swiss Webster mice were orally gavaged with a mixture of 1×10^8 CFU of each of 14 human gut microbes shown in FIG. 12D and Table 3. With the exception of the reporter strain, all species are sensitive to gentamicin and/or erythromycin (data not shown). Colonization was allowed to stabilize for at least 7 days prior to the start of the experiment. Fecal pellets were collected daily, and mice were given aTC (100 μg/mL) in the drinking water for 48 hours after stool collection on Day 3. Fecal samples were homogenized, and fibrous/insoluble matter removed as described above. From the supernatant, 200 μL was stored for DNA purification as previously described (Goodman, A. L. et al., 2011, Nat. Protoc., 6:1969-1980) and subsequent qPCR analysis (described below), 10 μL was used for CFU determination of the reporter strain by plating dilutions on BHI-blood agar plates containing gentamicin and erythromycin, and 500 μL was used for luminescence measurements (described below).
At each time point, abundance of each species was assessed by qPCR from fecal DNA using strain specific primers described previously (Cullen, T. W. et al., 2015, Science, 347:170-175). qPCR was performed as described (Goodman, A. L. et al., 2009, Cell Host and Microbe, 6:279-289; Martens, E. C. et al., 2008, Cell Host and Microbe, 4:447-457) using a CFX96 instrument (BioRad) and SYBR FAST universal master mix (KAPA Biosystems). Mean strain quantities were calculated using a standard curve.
as §1, with “Luminescence values were normalized to colony forming units (CFUs) determined by dilution plating of the resuspended fecal supernatant on BHI-blood agar plates containing gentamicin and erythromycin.” left out

## Cc1c2c(c(O)c3c(O)cccc13)C(=O)[C@]1(O)C(=O)C(C(N)=O)=C(O)[C@@H](N(C)C)[C@@H]1C2 [aTC, Anhydrotetracycline]
[1]; SPF Rag-/- mice
  return of fecal luminescence to baseline after aTC removal: 3 days
[1]; SPF Rag-/- mice, aTC in drinking water for 48 hours
  increase in fecal luminescence: 4,800 fold
[1]; mouse, in vivo
  effect on stability of B. thetaiotaomicron in a complete murine microbiota: does not affect the stability of B. thetaiotaomicron
[2]; 14-species community
  complete repression after removal of the inducer: 7 to 9 days
[2]; 14-species community, within 24 hours of 100 μg/mL aTC
  increase of luminescence in fecal pellets: ~4,500 fold
[2]; alpha and beta diversity, 19-day experiment
  impact on community structure: did not impact community structure
